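Where inhibition never reached the appropriate level, the endpoint shown equals the highest concentration tested. Otherwise, values were interpolated linearly from a five-concentration, 48-hour dose response in 96-well plates. GI50 is the concentration that inhibits growth by half. TGI denotes the concentration required for complete inhibition of growth.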
Key:
Assay in all cases: DTP human tumour cell line panel, 48 h
ACHN renal = system: ACHN renal
U251 CNS = system: U251 CNS
SF-295 CNS = system: SF-295 CNS
KM12 colon = system: KM12 colon
A498 renal = system: A498 renal
HCC-2998 colon = system: HCC-2998 colon
RPMI-8226 leukemia = system: RPMI-8226 leukemia
BT-549 breast = system: BT-549 breast
EKVX NSCLC = system: EKVX NSCLC
HT29 colon = system: HT29 colon
SK-OV-3 ovarian = system: SK-OV-3 ovarian
SW-620 colon = system: SW-620 colon
HCT-15 colon = system: HCT-15 colon
TK-10 renal = system: TK-10 renal
NCI-H23 lung = system: NCI-H23 lung
DU-145 prostate = system: DU-145 prostate
NCI-H460 lung = system: NCI-H460 lung
MCF7 breast = system: MCF7 breast
HCT-116 colon = system: HCT-116 colon
HOP-62 NSCLC = system: HOP-62 NSCLC
COLO 205 colon = system: COLO 205 colon
SK-MEL-5 melanoma = system: SK-MEL-5 melanoma
MDA-MB-435 = system: MDA-MB-435
HL-60(TB) leukemia = system: HL-60(TB) leukemia
OVCAR-3 ovarian = system: OVCAR-3 ovarian
NCI-H226 lung = system: NCI-H226 lung
SR leukemia = system: SR leukemia
NCI/ADR-RES ovarian = system: NCI/ADR-RES ovarian
A549 NSCLC = system: A549 NSCLC
SNB-19 CNS = system: SNB-19 CNS
M14 melanoma = system: M14 melanoma
786-0 renal = system: 786-0 renal
OVCAR-8 ovarian = system: OVCAR-8 ovarian
UACC-257 melanoma = system: UACC-257 melanoma
OVCAR-5 ovarian = system: OVCAR-5 ovarian
LOX IMVI melanoma = system: LOX IMVI melanoma
SF-268 CNS = system: SF-268 CNS
MOLT-4 leukemia = system: MOLT-4 leukemia
T-47D breast = system: T-47D breast
OVCAR-4 ovarian = system: OVCAR-4 ovarian
SN12C renal = system: SN12C renal
HOP-92 NSCLC = system: HOP-92 NSCLC
K-562 leukemia = system: K-562 leukemia
UO-31 renal = system: UO-31 renal
MDA-MB-231 breast = system: MDA-MB-231 breast
SF-539 CNS = system: SF-539 CNS
SK-MEL-2 melanoma = system: SK-MEL-2 melanoma
CAKI-1 renal = system: CAKI-1 renal
PC-3 prostate = system: PC-3 prostate
NCI-H522 lung = system: NCI-H522 lung
SK-MEL-28 melanoma = system: SK-MEL-28 melanoma
RXF 393 renal = system: RXF 393 renal
MALME-3M melanoma = system: MALME-3M melanoma
CCRF-CEM leukemia = system: CCRF-CEM leukemia
SNB-75 CNS = system: SNB-75 CNS
HS 578T breast = system: HS 578T breast
IGROV1 ovarian = system: IGROV1 ovarian

## NC(=O)c1nc(-c2c(F)cccc2Cl)oc1Nc1ccc(C(=O)N2CCOCC2)cc1
ACHN renal
  GI50: 2.41 µM
  TGI: > 100 µM
U251 CNS
  GI50: 2.25 µM
  TGI: > 100 µM
SF-295 CNS
  GI50: 1.61 µM
  TGI: > 100 µM
KM12 colon
  GI50: 0.326 µM
  TGI: > 100 µM
A498 renal
  GI50: 0.544 µM
  TGI: 3.28 µM
HCC-2998 colon
  GI50: 14.8 µM
  TGI: > 100 µM
RPMI-8226 leukemia
  GI50: 7.44 µM
  TGI: 50.7 µM
BT-549 breast
  GI50: 3.62 µM
  TGI: 54.6 µM
EKVX NSCLC
  GI50: 12.2 µM
  TGI: > 100 µM
HT29 colon
  GI50: 1.62 µM
  TGI: > 100 µM
SK-OV-3 ovarian
  GI50: 2.58 µM
  TGI: 75.2 µM
SW-620 colon
  GI50: 0.703 µM
  TGI: > 100 µM
HCT-15 colon
  GI50: 2.2 µM
  TGI: > 100 µM
TK-10 renal
  GI50: 2.33 µM
  TGI: 34.2 µM
NCI-H23 lung
  GI50: 2.91 µM
  TGI: > 100 µM
DU-145 prostate
  GI50: 11.9 µM
  TGI: > 100 µM
NCI-H460 lung
  GI50: 0.805 µM
  TGI: > 100 µM
MCF7 breast
  GI50: 0.596 µM
  TGI: > 100 µM
HCT-116 colon
  GI50: 1.36 µM
  TGI: 20 µM
HOP-62 NSCLC
  GI50: 2.08 µM
  TGI: > 100 µM
COLO 205 colon
  GI50: 1.64 µM
  TGI: 5.89 µM
SK-MEL-5 melanoma
  GI50: 10.5 µM
  TGI: 35.8 µM
MDA-MB-435
  GI50: 2.03 µM
  TGI: > 100 µM
HL-60(TB) leukemia
  GI50: 0.478 µM
  TGI: 31.7 µM
OVCAR-3 ovarian
  GI50: 10.3 µM
  TGI: > 100 µM
NCI-H226 lung
  GI50: 0.266 µM
  TGI: > 100 µM
SR leukemia
  GI50: 1 µM
  TGI: 84.7 µM
NCI/ADR-RES ovarian
  GI50: 6.23 µM
  TGI: > 100 µM
A549 NSCLC
  GI50: 0.936 µM
  TGI: > 100 µM
SNB-19 CNS
  GI50: 3 µM
  TGI: > 100 µM
M14 melanoma
  GI50: 13.7 µM
  TGI: > 100 µM
786-0 renal
  GI50: 2.18 µM
  TGI: > 100 µM
OVCAR-8 ovarian
  GI50: 5.83 µM
  TGI: > 100 µM
UACC-257 melanoma
  GI50: 11.9 µM
  TGI: 41.1 µM
OVCAR-5 ovarian
  GI50: 2.31 µM
  TGI: > 100 µM
LOX IMVI melanoma
  GI50: 0.914 µM
  TGI: 5.61 µM
SF-268 CNS
  GI50: 3.07 µM
  TGI: > 100 µM
MOLT-4 leukemia
  GI50: 2.03 µM
  TGI: 37.7 µM
T-47D breast
  GI50: 3.46 µM
  TGI: 62.7 µM
OVCAR-4 ovarian
  GI50: 28.4 µM
  TGI: > 100 µM
SN12C renal
  GI50: 2.12 µM
  TGI: > 100 µM
HOP-92 NSCLC
  GI50: 0.262 µM
  TGI: 2.11 µM
K-562 leukemia
  GI50: 4.66 µM
  TGI: > 100 µM
UO-31 renal
  GI50: 1.2 µM
  TGI: 25.8 µM
MDA-MB-231 breast
  GI50: 1.86 µM
  TGI: > 100 µM
SF-539 CNS
  GI50: 1.32 µM
  TGI: 5.16 µM
SK-MEL-2 melanoma
  GI50: 12.7 µM
  TGI: 58.6 µM
CAKI-1 renal
  GI50: 1.44 µM
  TGI: > 100 µM
PC-3 prostate
  GI50: 7.83 µM
  TGI: > 100 µM
NCI-H522 lung
  GI50: 2.11 µM
  TGI: 57.1 µM
SK-MEL-28 melanoma
  GI50: 13.9 µM
  TGI: > 100 µM
RXF 393 renal
  GI50: 0.964 µM
  TGI: 5.54 µM
MALME-3M melanoma
  GI50: 13 µM
  TGI: 55.6 µM
CCRF-CEM leukemia
  GI50: 0.4 µM
  TGI: > 100 µM

## COc1ccc(C(=CCC(C)C2CCC3[C@@H]4C(OC(C)=O)CC5CC(OC(C)=O)CC[C@]5(C)C4CC(OC(C)=O)[C@]23C)c2ccc(OC)cc2)cc1 (stereo partly drawn)
ACHN renal
  TGI: > 100 µM
U251 CNS
  TGI: > 100 µM
SF-295 CNS
  TGI: > 100 µM
KM12 colon
  TGI: > 100 µM
HCC-2998 colon
  TGI: > 100 µM
RPMI-8226 leukemia
  TGI: > 100 µM
EKVX NSCLC
  TGI: > 100 µM
HT29 colon
  TGI: > 100 µM
SK-OV-3 ovarian
  TGI: > 100 µM
SW-620 colon
  TGI: > 100 µM
HCT-15 colon
  TGI: > 100 µM
TK-10 renal
  TGI: > 100 µM
NCI-H460 lung
  TGI: > 100 µM
MCF7 breast
  TGI: > 100 µM
HCT-116 colon
  TGI: > 100 µM
HOP-62 NSCLC
  TGI: > 100 µM
SNB-75 CNS
  TGI: > 100 µM
COLO 205 colon
  TGI: > 100 µM
SK-MEL-5 melanoma
  TGI: > 100 µM
MDA-MB-435
  TGI: > 100 µM
HL-60(TB) leukemia
  TGI: 45.3 µM
SR leukemia
  TGI: 77.5 µM
NCI/ADR-RES ovarian
  TGI: > 100 µM
A549 NSCLC
  TGI: > 100 µM
SNB-19 CNS
  TGI: > 100 µM
M14 melanoma
  TGI: > 100 µM
786-0 renal
  TGI: > 100 µM
OVCAR-8 ovarian
  TGI: > 100 µM
UACC-257 melanoma
  TGI: > 100 µM
OVCAR-5 ovarian
  TGI: > 100 µM
HS 578T breast
  TGI: > 100 µM
SF-268 CNS
  TGI: > 100 µM
MOLT-4 leukemia
  TGI: > 100 µM
T-47D breast
  TGI: > 100 µM
OVCAR-4 ovarian
  TGI: > 100 µM
SN12C renal
  TGI: > 100 µM
K-562 leukemia
  TGI: > 100 µM
UO-31 renal
  TGI: > 100 µM
MDA-MB-231 breast
  TGI: > 100 µM
SF-539 CNS
  TGI: > 100 µM
PC-3 prostate
  TGI: > 100 µM
NCI-H522 lung
  TGI: > 100 µM
SK-MEL-28 melanoma
  TGI: > 100 µM
IGROV1 ovarian
  TGI: > 100 µM
CCRF-CEM leukemia
  TGI: > 100 µM

## O=c1[nH]ncc2[nH]c3c(c12)CCc1ccccc1-3
ACHN renal
  TGI: > 100 µM
U251 CNS
  TGI: > 100 µM
SF-295 CNS
  TGI: > 100 µM
KM12 colon
  TGI: > 100 µM
A498 renal
  TGI: 61.8 µM
RPMI-8226 leukemia
  TGI: 70.7 µM
BT-549 breast
  TGI: > 100 µM
EKVX NSCLC
  TGI: 30.2 µM
HT29 colon
  TGI: > 100 µM
SK-OV-3 ovarian
  TGI: > 100 µM
SW-620 colon
  TGI: > 100 µM
HCT-15 colon
  TGI: > 100 µM
TK-10 renal
  TGI: 81.2 µM
NCI-H23 lung
  TGI: > 100 µM
DU-145 prostate
  TGI: > 100 µM
NCI-H460 lung
  TGI: 77 µM
HCT-116 colon
  TGI: > 100 µM
HOP-62 NSCLC
  TGI: > 100 µM
SNB-75 CNS
  TGI: 76.1 µM
COLO 205 colon
  TGI: 30.3 µM
SK-MEL-5 melanoma
  TGI: 25 µM
MDA-MB-435
  TGI: > 100 µM
HL-60(TB) leukemia
  TGI: 69 µM
OVCAR-3 ovarian
  TGI: > 100 µM
NCI-H226 lung
  TGI: 40.7 µM
SR leukemia
  TGI: > 100 µM
NCI/ADR-RES ovarian
  TGI: > 100 µM
A549 NSCLC
  TGI: > 100 µM
SNB-19 CNS
  TGI: > 100 µM
M14 melanoma
  TGI: > 100 µM
786-0 renal
  TGI: > 100 µM
OVCAR-8 ovarian
  TGI: > 100 µM
UACC-257 melanoma
  TGI: > 100 µM
OVCAR-5 ovarian
  TGI: > 100 µM
LOX IMVI melanoma
  TGI: > 100 µM
HS 578T breast
  TGI: 59.2 µM
SF-268 CNS
  TGI: > 100 µM
MOLT-4 leukemia
  TGI: 69.7 µM
T-47D breast
  TGI: 98.9 µM
OVCAR-4 ovarian
  TGI: > 100 µM
SN12C renal
  TGI: > 100 µM
HOP-92 NSCLC
  TGI: 81.8 µM
K-562 leukemia
  TGI: > 100 µM
UO-31 renal
  TGI: > 100 µM
MDA-MB-231 breast
  TGI: > 100 µM
SF-539 CNS
  TGI: 42.1 µM
SK-MEL-2 melanoma
  TGI: 57.7 µM
CAKI-1 renal
  TGI: > 100 µM
PC-3 prostate
  TGI: > 100 µM
NCI-H522 lung
  TGI: 57 µM
SK-MEL-28 melanoma
  TGI: > 100 µM
RXF 393 renal
  TGI: 42 µM
IGROV1 ovarian
  TGI: 44.3 µM
MALME-3M melanoma
  TGI: > 100 µM
CCRF-CEM leukemia
  TGI: > 100 µM

Reference: PubChem BioAssay (NCI)
